Measurements reported in paper PMC11879692, “PDE4 inhibitor rolipram represses hedgehog signaling via ubiquitin-mediated proteolysis of GLI transcription factors to regress breast cancer” (The Journal of Biological Chemistry, 2025).

Experiments:
[1] = test system: GLI2 and GLI3 in MCF-7 cells; assay: Ubiquitination of GLI2 and GLI3 (HA-Ub transfection, immunoprecipitation, anti-HA blot); format: cell-based, human
Experimental: (§1) HA-Ubiquitin plasmid (Addgene; catalog no.: plasmid #18712, RRID: Addgene_18712) was transfected into MCF-7 and MDA-MB-231 cells using X-tremeGENE HP DNA Transfection Reagent (Roche; catalog no.: XTGHP-RO). Proteins were extracted from the untreated control cells and cells treated with rolipram for 24 h and were immunoprecipitated using antibodies raised against GLI2 and GLI3. The immunoprecipitation involved overnight incubation of protein and antibodies in Pierce Protein A/G Agarose (Thermo Scientific; catalog no.: 20421) at 4°C. Following immunoprecipitation, the precipitate was subjected to Western blot analysis using anti-HA antibodies (Cell Signaling Technology; catalog no.: 2367; RRID: AB_10691311) to observe ubiquitination of the desired proteins. Cells were cotreated with MG-132 (Sigma–Aldrich; catalog no.: M7449), a proteosomal blocker for ascertaining ubiquitination ([35]).

[2] = test system: GLI2 and GLI3 in MDA-MB-231 cells; assay: as above; format: cell-based, human
Experimental: as §1

[3] = test system: 4T1 mice breast carcinoma cells, mammary fat pad tumor; assay: Solid tumor in mice, tumor weight and volume; format: in vivo, BALB/c mice; details: vs untreated tumor
Experimental: (§2) Solid tumors were developed in BALB/c mice (n = 3) except the control group (group I) by injecting 1 × 10^4 viable 4T1 (RRID: CVCL_0125) mice breast carcinoma cells (resuspended in 50 μl of PBS) into the inguinal fourth mammary fat pad, and the tumor was allowed to develop for 14 days ([37], [38]). Mice were randomly divided into three groups, viz., untreated tumor (group II), mice treated intraperitoneally with 1 mg//kg bodyweight of rolipram (group III), and mice receiving 5 mg/kg bodyweight of rolipram, intraperitoneally (group IV) ([39], [40]). After 14 days, the mice were sacrificed. Lung, kidney, liver, serum, and the tumors were collected for further experiments ([15]).
Weight of mammary fat pad of mice from group I and weight of tumors from groups II, III, and IV were measured using digital fine balance. Width and length of the tumors obtained from mice of groups II, III, and IV were measured using digital Vernier caliper. The volume was measured by the formula V = half × (W × W × L), where V is the volume, W is the width, and L is the length of the tumors ([15], [41]).

[4] = test system: MDA-MB-231 cells; assay: Western blot analysis of protein expression; format: cell-based, human
Experimental: After treatment of cells with rolipram, proteins were extracted from cells by lysing the cells with radioimmunoprecipitation assay buffer, comprising of 150 mM NaCl, 1% Triton X-100, 0.5% sodium deoxycholate, and 0.1% SDS. Equal amount of proteins (40 μg) were resolved using SDS-PAGE before transferring onto nitrocellulose membrane (Immobilon-NC Transfer Membrane; Merck Millipore; catalog no.: HATF00010). The membranes were then incubated overnight with primary antibody at a dilution of 1:1000 at 4°C followed by incubation with secondary antibodies at a dilution of 1:5000 for 2 h at room temperature. Immune detection was performed using femtoLUCENT PLUS-HRP (G-Biosciences; catalog no.: 786-003), and the image was obtained from the Bio-Rad ChemiDoc XRS+ system. Analysis of protein expression was carried out using Bio-Rad Image Lab software (RRID: SCR_014210) and National Institutes of Health ImageJ software ([34]) (RRID: SCR_003070). All protein expressions were normalized against β-tubulin (loading control).

[5] = test system: GLI1; assay: Immunohistochemistry of tumor tissue, GLI1; format: in vivo, BALB/c mice
Experimental: as §2
(§3) Mice mammary fat pad and mammary tumor tissues were processed as for histology, and 5 μm-thick sections were mounted on glass slides. The tissue sections were deparaffinized with xylene and hydrated with […] grades of alcohols (100% to 70%). Rehydrated sections were equilibrated in PBS. Antigen retrieval was performed by boiling the sections in a 0.1 M sodium citrate buffer (pH 6.0) for 10 min. […] The frequency (cell count) of positive and negative cells as well as the mean absorbance of the positive cells were plotted using MatPlotLib (RRID: SCR_008624), a Python (RRID: SCR_008394) 2D plotting library.

[6] = test system: PKA; assay: Immunohistochemistry of tumor tissue, PKA; format: in vivo, BALB/c mice
Experimental: as §2, §3

[7] = 1 mg/kg bodyweight i.p., 14 days of treatment
[8] = 5 mg/kg bodyweight i.p., 14 days
[9] = MDA-MB-231, IC50 dose, time course

COc1ccc(C2CNC(=O)C2)cc1OC1CCCC1 (stereo not shown) [rolipram, Rolipram]
ubiquitination of GLI2 and GLI3 ([1]; MCF-7, IC50 dose, 6 h to 24 h): significant ubiquitination | ubiquitination of GLI2 and GLI3 ([1]; MCF-7, in the presence of H89): not able to induce ubiquitination | ubiquitination of GLI2 and GLI3 ([2]; MDA-MB-231, IC50 dose): ubiquitination of both proteins was also observed | ubiquitination of GLI2 and GLI3 ([2]; MDA-MB-231, in the presence of H89): not able to induce ubiquitination | reduction of tumor volume [3, 7]: twofold | reduction of tumor weight [3, 7]: twofold | reduction of tumor volume [3, 8]: 2.8 fold | reduction of tumor weight [3, 8]: 3.4 fold | reduction of MMP9 expression ([4]; MDA-MB-231 (TNBC cells)): twofold | downregulation of expression of MMP2 ([4]; MDA-MB-231, IC50 dose): twofold | levels of phospho-Akt ([4]; MDA-MB-231, IC50 dose): reduced | levels of phosphorylated-GSK3β ([4]; MDA-MB-231, IC50 dose): reduced levels | level of GLI2R ([4]; MDA-MB-231, IC50 dose, 48 h): decreased slightly | level of GLI2FL [4, 9]: significantly decreased with time | level of GLI3R [4, 9]: increased with time | levels of PKA [4, 9]: increased levels | level of GLI1 ([4]; MDA-MB-231, IC50 dose, time-dependent): reduced | level of GLI2R ([4]; MDA-MB-231, IC50 dose, up to 24 h): increased up to 24 h | elevated expression of PTEN ([4]; MDA-MB-231, IC50 dose, within 12 h): threefold | level of E-cadherin ([4]; MDA-MB-231, after 24 h): no conclusive change | levels of vimentin ([4]; MDA-MB-231, after 48 h): decrease | levels of GLI proteins ([4]; MDA-MB-231, cotreatment with H89 (10 μM), 24 h, vs control and H89 only): unaltered | repressor forms of GLI2 and GLI3 ([4]; MDA-MB-231, in combination with TAK-243 (0.1 μM), 24 h): failed to produce the repressor forms | effects on expressions of MMPs, E-cadherin, and vimentin ([4]; MDA-MB-231, in the presence of TAK-243): failed to exert any of the aforementioned effects | reduction of GLI1 expression in tumor tissue ([5]; 1 mg/kg bodyweight): twofold | reduction of GLI1 expression in tumor tissue ([5]; 5 mg/kg bodyweight): sixfold | increase of PKA-positive cells compared with tumor tissues ([6]; 1 mg/kg bodyweight): ~1.5 fold | increase of PKA-positive cells compared with tumor tissues ([6]; 5 mg/kg bodyweight): ~1.5 fold
